Reference: paper PMC8621770, “New Compounds with Bioisosteric Replacement of Classic Choline Kinase Inhibitors Show Potent Antiplasmodial Activity” (Pharmaceutics, 2021)

Assays:
P. falciparum strain 3D7 = assay: Antimalarial activity, P. falciparum lactate dehydrogenase growth inhibition assay; type: cell-based, Plasmodium falciparum; conditions: Plasmodium falciparum, Erythrocyte; P. falciparum 3D7 in human erythrocytes, 72 h, LDH readout; read-out: IC50 a (In vitro IC50 values against P. falciparum)
PfCK = biological target: T1, PfCK (Plasmodium falciparum, UniProt Q8IM71); assay: Spectrophotometric coupled enzymatic assay for PfCK activity (substrate choline); type: biochemical; conditions: read-out: PfCK Fractional Activity at 25 µM
T1 construct: A truncated form of PfCK (Δ79-440) featuring an N-terminal 6× His-tag; 6xHis (N); host or cells: Escherichia coli BL21 (DE3) Star

[1] = Aggregation of compound solutions for the enzymatic assays; type: physicochemical; conditions: even at 5 mM concentration
From the text: As a result, it was difficult to measure their exact concentration, which is crucial for enzymatic assays.

T1 sequence (Q8IM71 entry or part of it): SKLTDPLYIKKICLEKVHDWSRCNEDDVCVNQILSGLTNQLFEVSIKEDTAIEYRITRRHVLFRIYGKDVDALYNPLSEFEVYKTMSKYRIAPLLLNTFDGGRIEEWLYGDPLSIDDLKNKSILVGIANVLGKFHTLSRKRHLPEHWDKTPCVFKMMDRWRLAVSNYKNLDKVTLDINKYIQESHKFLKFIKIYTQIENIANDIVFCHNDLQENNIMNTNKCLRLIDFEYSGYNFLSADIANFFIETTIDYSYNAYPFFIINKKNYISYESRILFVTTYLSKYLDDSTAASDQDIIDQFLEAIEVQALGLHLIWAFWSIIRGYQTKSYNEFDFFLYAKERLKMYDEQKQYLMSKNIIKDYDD

[Br-].c1ccc(-c2ccc(C[n+]3cnc(N4CCCC4)c4ccsc43)cc2)cc1 [Fa-M3, 1-([1,1’-biphenyl]-4-ylmethyl)-4-(pyrrolidin-1-yl)thieno[2,3-d]pyrimidin-1-ium bromide]
IC50 (P. falciparum strain 3D7): 35.1 nM | remaining activity at 25 µM (PfCK): 96.9 ± 18.7% | aggregation [1]: severe aggregation | melting point: 275 to 278 °C
